Reference: US11396497B2, “Proteasome inhibitors” (New Mexico Tech University Research Park Corporation, priority 2018, dated 2022)
Where two headings read alike, the source gives them in different places.

Tests used:
MCF7 cells [1] = assay: MTT assay cytotoxicity MCF7; details: Homo sapiens
[2] = target: T1, yeast proteasome yβ2 subunit (Saccharomyces cerevisiae, UniProt P25043+P25451); assay: Subunit selectivity, purified yeast proteasome yβ2; assay type: biochemical
T1 construct: measured using 8 μg/mL of purified yCP or iCP
Protocol: (§1) The compounds were diluted with lysis buffer; 10 μL of the compound-containing solution was added to the test wells at ten times the final concentration. […] The results are reported as the average of at least 3 technical replicates of IC50 values for proteasome inhibition.
(§2) Values and standard deviations were calculated from an assay performed in biological triplicate.

MDA-MB-231 cells [3] = assay: MTT assay cytotoxicity MDA-MB-231; details: Homo sapiens
Protocol: (§4) The cells were incubated at 37° C. in a humidified atmosphere with 5% CO2.
(§5) 100 μL of cells were added to each well of a 96 well microtiter plate at a concentration of 4×10^4 cells/mL and incubated overnight to allow proper adhesion. (RPMI 8226 cells were plated at 4×10^5 cells/mL). The cells were treated with the panel of test compounds at a series of concentrations, along with vehicle control DMSO and untreated cells as controls. After 48 h incubation, 20 μL of MTT reagent (3-(4,5-dimethylthiazol-2-yl)-2,5-diphenyltetrazolium bromide) in PBS (5 mg/mL) was added to each well of the plates. The plate was incubated for 2 h at 37° C. For adherent cell lines, the media was removed from each well of the plate and the resulting formazan crystals dissolved in 100 μL of DMSO. For RPMI 8226 cells, 200 ul of DMF/SDS mix (50% DMF. 10% w/v SDS pH<4) was used to solubilize the formazan crystals. Optical density (OD) at 490 nm was measured using a microplate reader. Cells treated with 1 μM phenyl arsine oxide (PAO) served as a positive cell-killing control. Technical replicates of these assays were performed in biological quadruplicate, and the three best values were used for analysis in order to eliminate outliers. Data presented are the average IC50 value calculated from at least 3 technical replicates with the corresponding standard deviation.

[4] = target: T2, yeast proteasome yβ1 subunit (Saccharomyces cerevisiae, UniProt P25043+P38624); assay: Subunit selectivity, purified yeast proteasome yβ1; assay type: biochemical
T2 construct: measured using 8 μg/mL of purified yCP or iCP
Protocol: as §1, §2

Jurkat cells [5] = assay: Apoptosis assay (Annexin V-FITC, flow cytometry); assay type: cell-based, human
Protocol: Apoptosis assay: 1 mL of Jurkat cells, at a density of 500,000 cells per milliliter, was added to 12 wells of a 24 well microtiter plate. Cells were treated immediately using a serial dilution of the synthesized proteasome inhibitors, the benzyl ester of Cystargolide B and the belactosin-cystargolide hybrid molecule. 10 μM Paclitaxel and 0.2 μg/mL Doxorubicin hydrochloride were used as positive apoptosis controls and non-treated cells were used as a negative control. The cells were then incubated for 24 h at 37° C. and 5% CO2. The following day, Annexin V-FITC conjugate was used to assay for the expression of phosphatidyl serine on the […] of the cellular membrane. The cells were briefly pelleted, aspirated, and resuspended in 300 μL of a reaction mixture containing 0.2 μL/mL of the Annexin V FITC solution, 2 mM CaCl2 to enable binding, and 2 μg/mL propidium iodide as an indicator of cell permeability. Each sample was incubated at 37° C. for 20 minutes, and then analyzed by flow cytometry. Single, whole cells were selected based on the forward and the side-scatter. With an excitation of 488 nm Annexin V-FITC binding was identified using FL1 533 nm emission. Propidium iodide staining was selected based on FL2 585 nm emission. […] Measurements were taken in biological triplicate for each sample, and the results were confirmed in technical triplicate.

RPMI 8226 cells [6] = assay: MTT assay cytotoxicity RPMI 8226; details: Homo sapiens
[7] = target: T3, yeast proteasome yβ5 subunit (Saccharomyces cerevisiae, UniProt P23724+P30656); assay: Subunit selectivity, purified yeast proteasome yβ5; assay type: biochemical
T3 construct: measured using 8 μg/mL of purified yCP or iCP
Protocol: as §1, §2

[8] = target: T4, chymotrypsin-like activity of the 26S proteasome (Homo sapiens, UniProt P28074); assay: Proteasome assay, chymotrypsin-like (ChT-L) activity, Suc-LLVY-AMC, Jurkat cell lysate; assay type: biochemical; details: ± S.D., read-out: Proteasome Inhibition ChT-like IC50
T4 construct: endogenous in cells; host or cells: Jurkat (ATCC TIB-152, E6-1 clone) cell lysate
T4 sequence (P28074 60-263): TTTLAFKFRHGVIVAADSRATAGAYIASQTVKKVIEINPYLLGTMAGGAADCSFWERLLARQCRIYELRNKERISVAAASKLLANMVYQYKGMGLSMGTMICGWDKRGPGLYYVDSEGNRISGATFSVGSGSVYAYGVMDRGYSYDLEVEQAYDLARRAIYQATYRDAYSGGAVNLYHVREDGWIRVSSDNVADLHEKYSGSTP
Protocol: (§3) The lysate was stored at −80° C. until the sample was used for the proteasome assay.
as §1

Jurkat cells [9] = assay: Cell cycle assay (flow cytometry); assay type: cell-based, human
Protocol: Vybrant® DyeCycle™ Orange Stain was used for the cell cycle assay. The amount of fluorescence of DNA was used as a relative measure of a cell's stage in the cell cycle. 500,000 Jurkat cells were added to wells on a 24 well microtiter plate in 1 mL of supplemented RPMI media. The cells were then treated with Compound 1 (TABLE 2). Using the cells treated for 12 and 24 hours, stained DNA fluorescence was measured via flow cytometry. The cells were taken from each well, pelleted briefly, aspirated, resuspended in 300 μL of 2 μL/mL Vybrant® DyeCycle™ Orange Stain, incubated at 37° C. for 15 minutes, and analyzed by flow cytometry. Selecting whole cells based on forward and side scatter, stained DNA fluorescence was excited at 488 nm and measured at an emission wavelength of 585 nm, using amount of fluorescence as a means of distinguishing between populations of cells. Populations were identified as G1 for the peak associated with the lowest amount of fluorescence, S phase for increased fluorescence appearing as a shoulder off of the G1 peak, and G2/M for approximately 2 times the fluorescence as the G1 peak. Measurements were taken in biological triplicate and confirmed in technical triplicate.

[10] = target: T5, immunoproteasome iβ5 subunit (Homo sapiens, UniProt P20618+P28062); assay: Subunit selectivity, purified immunoproteasome iβ5; assay type: biochemical
T5 construct: purchased Enzo Life Sciences
Protocol: as §1, §2

[11] = target: T6, trypsin-like activity of the 26S proteasome (Homo sapiens, UniProt Q99436); assay: Proteasome assay, trypsin-like (T-L) activity, SUC-RLR-AMC, Jurkat cell lysate; assay type: biochemical
T6 construct: endogenous in cells; host or cells: Jurkat (ATCC TIB-152, E6-1 clone) cell lysate
T6 sequence (Q99436 44-277): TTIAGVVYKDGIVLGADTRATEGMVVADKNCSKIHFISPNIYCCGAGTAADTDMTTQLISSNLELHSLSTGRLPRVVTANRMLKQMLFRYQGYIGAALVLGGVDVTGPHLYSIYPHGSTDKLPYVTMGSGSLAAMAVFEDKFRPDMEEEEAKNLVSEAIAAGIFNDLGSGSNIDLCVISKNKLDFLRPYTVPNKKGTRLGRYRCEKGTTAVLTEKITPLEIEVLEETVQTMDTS
Protocol: as §3, §1

[12] = system: ubiquitinated proteins in MCF7 cells; assay: Western blot of ubiquitinated proteins; assay type: cell-based, human
Protocol: The cells were incubated for 9.5 hrs at 37° C. and 5% CO2. After washing with PBS twice, cells were scraped, pelleted and lysed with CytoBuster™ Protein Extraction Reagent \ containing 10 μM compound 8, 10 μM Na3VO4, 0.017 mg/mL Aprotinin, 1 mM PMSF, and 1% Protease Inhibitor Cocktail. Thereafter 30 μg of protein in sample buffer (50 mM Tris-HCl, 2% SDS, 10% Glycerol, 1% β-mercaptoethanol, 12.5 mM EDTA, 0.02% Bromophenol Blue, pH 6.8) that had been boiled at 90° C. for 5 min, was electrophoresed using 6/8% SDS-PAGE, and the protein transferred to a […] PVDF membrane using a BioRad Trans-Blot® SD at 15 V for 17 minutes. The membrane was blocked with 1× casein buffer (Diluted 1:10 in water from casein blocking buffer 10×), and probed with either the polyclonal rabbit anti β-Actin (1:500) or the polyclonal rabbit anti-ubiquitin antibody (1:300), and stained with goat anti-rabbit IgG (H+L) HRP conjugate (1:3000) secondary antibodies. Antibody-recognized bands were visualized by a standard horseradish peroxidase chemiluminescent assay with an ECL kit.

[13] = system: cancer cells (MCF7, MDA-MB-231, RPMI 8226); assay: MTT cytotoxicity, cell line not given
RPMI 8226 cells [14] = system: RPMI 8226 cells
MDA-MB-231 cells [15] = system: MDA-MB-231 cells
Protocol: as §4, §5

MCF7 cells [16] = system: MCF7 cells
[17] = MCF7, 48 h, read-out: Cytotoxicity MCF7 IC50
[18] = MCF7, read-out: Cytotoxicity MCF7 IC50
[19] = MDA-MB-231, 48 h, read-out: Cytotoxicity MDA-MB-231 IC50
[20] = MDA-MB-231, read-out: Cytotoxicity MDA-MB-231 IC50
[21] = RPMI-8226, 48 h, read-out: Cytotoxicity RPMI 8226 IC50
[22] = 8 μg/mL purified yCP, ± SD, read-out: yβ2 IC50
[23] = 8 μg/mL purified yCP, ± SD, read-out: yβ1 IC50
[24] = Table 3, P2/P3 analogues, ± S.D., read-out: Proteasome Inhibition T-L-like IC50
[25] = 8 μg/mL purified iCP, ± SD, read-out: iβ5 IC50

SMILES: CC(C)C[C@H](NC(=O)[C@H](CCc1ccccc1)NC(=O)CN1CCOCC1)C(=O)N[C@@H](Cc1ccccc1)C(=O)N[C@@H](CC(C)C)C(=O)[C@@]1(C)CO1 [Carfilzomib, reference compound]
- IC50 (MCF7 cells [1]; [17]): 4 ± 1 nM
- IC50 (MCF7 cells [1]; [18]): 4.08 ± 0.056 nM
- IC50 [2]: > 1 µM
- IC50 (MDA-MB-231 cells [3]; [19]): 4 ± 2 nM
- IC50 (MDA-MB-231 cells [3]; [20]): 2.79 ± 0.464 nM
- IC50 [4]: > 1 µM

SMILES: CC(C)[C@H](NC(=O)[C@@H]1OC(=O)[C@H]1C(C)C)C(=O)N[C@H](C(=O)OCc1ccccc1)C(C)C [Compound 1]
- induction of apoptosis (Jurkat cells [5]): induction of apoptosis
- IC50 (RPMI 8226 cells [6]; [21]): 1310 ± 745 nM
- IC50 (MCF7 cells [1]; [17]): 8090 ± 4270 nM
- IC50 [2, 22]: 14.6 ± 0.91 µM
- IC50 ([7]; 8 μg/mL purified yCP, ± SD, read-out: yβ5 IC50): 37.2 ± 4.5 nM
- IC50 (MDA-MB-231 cells [3]; [19]): 2790 ± 464 nM
- IC50 ([8]; Table 2, P1 analogues): 8.9 ± 6.2 nM
- cell cycle arrest (Jurkat cells [9]): cell cycle arrest in the G2/M phase
- IC50 [4, 23]: 4.18 ± 0.438 µM
- IC50 [10]: 44.7 ± 12.8 nM
- IC50 ([11]; Table 2, P1 analogues, ± S.D., read-out: Proteasome Inhibition T-L-like IC50): 1950 ± 901 nM
- accumulation of ubiquitinated proteins [12]: accumulation of ubiquitinated proteins

SMILES: CC[C@H](C)[C@@H]1C(=O)O[C@H]1C(=O)NCC(=O)N[C@H](C(=O)OCc1ccccc1)C(C)C [Compound 10a, Benzyl ((2R,3S)-3-((S)-sec-butyl)-4-oxooxetane-2-carbonyl)glycyl-L-valinate]
- IC50 (RPMI 8226 cells [6]; [21]): 840 ± 429 nM
- IC50 (MCF7 cells [1]; [17]): ~4000 nM
- concentration up to which complete cytotoxicity was not achieved [13]: > 100 µM
- IC50 (MDA-MB-231 cells [3]; [19]): 952 ± 262 nM
- IC50 ([8]; Table 3, P2/P3 analogues): 3.8 ± 1.4 nM
- IC50 [11]: 256 ± 72 nM

SMILES: CC[C@H](C)[C@@H]1C(=O)O[C@H]1C(=O)N[C@@H](CC(C)C)C(=O)N[C@H](C(=O)OCc1ccccc1)C(C)C [Compound 10h, Benzyl((2R,3S)-3-((S)-sec-butyl)-4-oxooxetane-2-carbonyl)-L-leucyl-L-valinate]
- IC50 (RPMI 8226 cells [14]): 1780 ± 1020 nM
- IC50 (MDA-MB-231 cells [15]): 2080 ± 651 nM
- IC50 ([8]; Table 3, P2/P3 analogues): 4.7 ± 1.8 nM
- IC50 (MCF7 cells [16]): 2350 ± 458 nM
- IC50 [11, 24]: 2560 ± 390 nM

SMILES: CC[C@H](C)[C@@H]1C(=O)O[C@H]1C(=O)N[C@H](C(=O)N[C@@H](COCc1ccccc1)C(=O)OCc1ccccc1)C(C)C [Compound 10k, Benzyl O-benzyl-N-(((2R,3S)-3-((S)-sec-butyl)-4-oxooxetane-2-carbonyl)-L-valyl)-L-serinate]
- IC50 (RPMI 8226 cells [6]; [21]): 50 ± 28 nM
- IC50 (RPMI 8226 cells [6]; RPMI-8226, read-out: Cytotoxicity RPMI 8226 IC50): 40.5 ± 1.66 nM
- IC50 (MCF7 cells [1]; [17]): 284 ± 132 nM
- IC50 (MCF7 cells [1]; [18]): 178 ± 23.4 nM
- IC50 [2]: > 50 µM
- IC50 [7]: 24.5 ± 3.9 nM
- cytotoxicity IC50 for all three cell lines tested (in words) [13]: midrange nanomolar
- times less cytotoxic than carfilzomib [13]: about 10 times
- IC50 (MDA-MB-231 cells [3]; [19]): 90 ± 51 nM
- IC50 (MDA-MB-231 cells [3]; [20]): 75.6 ± 3.49 nM
- IC50 [4]: 17.8 ± 2.07 µM
- IC50 [10, 25]: 9.1 ± 2.7 nM
- IC50 [11, 24]: 1340 ± 334 nM

SMILES: CC[C@H](C)[C@@H]1C(=O)O[C@H]1C(=O)N[C@H](C(=O)N[C@H](C(=O)NCc1ccccc1)C(C)C)C(C)C [Compound 11e, (2R,3S)—N—((S)-1-(((S)-1-(benzylamino)-3-methyl-1-oxobutan-2-yl)amino)-3-methyl-1-oxobutan-2-yl)-3-((S)-sec-butyl)-4-oxooxetane-2-carboxamide]
- IC50 (RPMI 8226 cells [6]; [21]): 387 ± 177 nM
- IC50 (MCF7 cells [1]; [17]): 814 ± 121 nM
- IC50 [2]: 2.92 ± 0.21 µM
- IC50 [7]: 5.4 ± 0.5 nM
- IC50 (MDA-MB-231 cells [3]; [19]): 742 ± 212 nM
- IC50 ([8]; Table 4, P4 analogues): 4.5 ± 2.9 nM
- IC50 [4]: 1.38 ± 0.106 µM

SMILES: CC(C)C1C(=O)OC1C(=O)N[C@H](C(=O)N[C@H](C(=O)O)C(C)C)C(C)C (stereo partly shown) [CysB, Cystargolide B, reference compound]
- IC50 [2, 22]: 61.6 ± 4.84 µM
- IC50 [4, 23]: 10.2 ± 0.78 µM
- IC50 [10, 25]: 681 ± 177 nM
